Test results as given in patent US20260035365A1, “1H-PYRROLO[3,2-B]PYRIDINE DERIVATIVES AS IRREVERSIBLE INHIBITORS OF MUTANT EGFR FOR THE TREATMENT OF CANCER” (Bayer Aktiengesellschaft, priority 2022, published 2026).

Assays:
[1] = tested on: BA/F3 (insSVD) cells; experiment: Ba/F3 cell survival assay (Cell Titer-Glo), EGFR-insSVD; assay type: cell-based; conditions: Mus musculus, BaF3, 48 h, without IL-3, with EGF
Outline: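 Viability read by CellTiter-Glo luminescence after 48 h compound exposure at 37° C, 4000 cells/well. Retrovirally transduced, puromycin-selected Ba/F3 lines carrying EGFR-insSVD ± T790M grew IL-3-free with 10 ng/mL EGF for 2 days beforehand; compound delivered by 100 nL pin.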

[2] = target: mutEGFR (D770_N771insNPG, T790); experiment: mutEGFR (D770_N771insNPG, T790) kinase assay; assay type: biochemical, human
Chain of mutEGFR (D770_N771insNPG, T790) (P00533 with tags, fused parts or gaps INS770NPG limits assumed): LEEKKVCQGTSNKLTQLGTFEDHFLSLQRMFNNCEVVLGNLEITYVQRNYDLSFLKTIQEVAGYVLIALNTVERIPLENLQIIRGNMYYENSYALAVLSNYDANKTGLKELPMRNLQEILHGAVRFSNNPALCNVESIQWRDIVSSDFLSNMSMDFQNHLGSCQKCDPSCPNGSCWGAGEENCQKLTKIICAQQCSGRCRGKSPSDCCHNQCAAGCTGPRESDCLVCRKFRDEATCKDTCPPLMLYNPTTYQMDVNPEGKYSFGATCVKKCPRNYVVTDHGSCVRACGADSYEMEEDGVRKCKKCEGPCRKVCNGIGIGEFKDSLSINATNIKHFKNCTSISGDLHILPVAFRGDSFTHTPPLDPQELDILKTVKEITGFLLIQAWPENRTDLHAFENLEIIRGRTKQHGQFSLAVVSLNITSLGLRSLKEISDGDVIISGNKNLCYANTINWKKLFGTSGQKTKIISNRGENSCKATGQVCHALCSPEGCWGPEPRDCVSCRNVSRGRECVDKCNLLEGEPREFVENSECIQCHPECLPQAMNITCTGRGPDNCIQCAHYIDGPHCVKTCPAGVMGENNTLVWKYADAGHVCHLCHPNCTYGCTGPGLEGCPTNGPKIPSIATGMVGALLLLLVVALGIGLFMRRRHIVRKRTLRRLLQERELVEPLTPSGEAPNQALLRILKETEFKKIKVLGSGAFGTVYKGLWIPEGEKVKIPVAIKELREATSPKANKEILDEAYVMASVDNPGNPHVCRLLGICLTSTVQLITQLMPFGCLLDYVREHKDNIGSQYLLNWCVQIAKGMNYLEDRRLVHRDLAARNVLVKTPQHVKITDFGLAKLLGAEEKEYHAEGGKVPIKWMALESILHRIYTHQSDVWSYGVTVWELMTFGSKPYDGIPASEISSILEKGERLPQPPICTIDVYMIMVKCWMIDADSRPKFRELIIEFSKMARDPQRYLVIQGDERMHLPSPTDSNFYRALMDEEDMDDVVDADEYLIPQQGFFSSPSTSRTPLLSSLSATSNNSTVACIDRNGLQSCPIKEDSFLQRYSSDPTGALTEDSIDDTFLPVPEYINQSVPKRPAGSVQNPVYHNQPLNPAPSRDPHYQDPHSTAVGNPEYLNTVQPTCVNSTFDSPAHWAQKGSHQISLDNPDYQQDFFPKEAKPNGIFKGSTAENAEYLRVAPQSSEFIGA

[3] = tested on: BA/F3 (EGFR D770_N771 insSVD T790M) cells; experiment: Ba/F3 cell survival assay (Cell Titer-Glo), EGFR-insSVD T790M; assay type: cell-based; conditions: Ba/F3 EGFR-D770-N771ins_SVD; 48 h, without IL-3, with EGF
Procedure: 293T cells from ATCC were transfected with pBABEpuro expression constructs for WT EGFR or EGFR-insSVD, or EGFR-insSVD T790M, and pCL-Eco packaging vector using Fugene-6 transfection reagent from Promega. Plates were incubated at 37° C. for 48 h. Retrovirus was harvested by filtering the media supernatant through a 0.45 μm filter.
Ba/F3 cells purchased from DSMZ were grown in RPMI+10% FBS+10 ng/mL IL-3 and infected with filtered retroviral supernatant at a 1:2 dilution. Polybrene was added to a concentration of 8 μg/mL, plates were spun for 90 min, and incubated for 16 h at 37° C. 2 μg/mL puromycin was added to the infected cells 24 h after infection and cells were continually grown in the presence of puromycin and 10 ng/mL IL-3. Following stably expressing Ba/F3 cell lines were generated: Ba/F3-EGFR-WT, Ba/F3-EGFR-insSVD, Ba/F3-EGFR-insSVD T790M, (Ba/F3-vector-control).
For cell survival assays, Ba/F3 cells were grown to a density of 1-2 million cells per mL, spun down and resuspended in media without IL-3, and replated at a concentration of 200,000-500,000 cells per mL. The cells ectopically expressing WT EGFR, EGFR-insSVD, or EGFR-insSVD T790M were plated with 10 ng/mL Millipore Culture grade EGF. The cells ectopically expressing pBABEpuro empty vector were plated with 10 ng/mL IL-3.
2 days later, cells were plated in 50 μL in a 384 well plate at a concentration of 4000 cells per well for cells assayed in the absence of IL-3 and 2000 cells per well for cells assayed in the presence of IL-3. 100 nL of compound was added to each well using a 100 nL pin head, and plates were incubated at 37° C. for 48 h.
Cell viability was measured by adding 20 μL of Cell Titer-Glo Luminescent Cell Viability Reagent diluted 1:3 in PBS. Plates were sealed with Perkin Elmer Top-Seal, inverted several times to mix, and immediately centrifuged at 1000 rpm for 2 min. Plates were incubated in low light conditions for 8-10 min and luminescence was measured.

[4] = target: mutEGFR (D770_N771insSVD) (Homo sapiens, UniProt P00533, INS767SVD); experiment: Exon20-mutant-EGFR (D770_N771insSVD) TR-FRET kinase assay; assay type: biochemical; conditions: 2 mM ATP, 15 min preincubation
Chain of mutEGFR (D770_N771insSVD) (P00533 with tags, fused parts or gaps INS767SVD limits assumed): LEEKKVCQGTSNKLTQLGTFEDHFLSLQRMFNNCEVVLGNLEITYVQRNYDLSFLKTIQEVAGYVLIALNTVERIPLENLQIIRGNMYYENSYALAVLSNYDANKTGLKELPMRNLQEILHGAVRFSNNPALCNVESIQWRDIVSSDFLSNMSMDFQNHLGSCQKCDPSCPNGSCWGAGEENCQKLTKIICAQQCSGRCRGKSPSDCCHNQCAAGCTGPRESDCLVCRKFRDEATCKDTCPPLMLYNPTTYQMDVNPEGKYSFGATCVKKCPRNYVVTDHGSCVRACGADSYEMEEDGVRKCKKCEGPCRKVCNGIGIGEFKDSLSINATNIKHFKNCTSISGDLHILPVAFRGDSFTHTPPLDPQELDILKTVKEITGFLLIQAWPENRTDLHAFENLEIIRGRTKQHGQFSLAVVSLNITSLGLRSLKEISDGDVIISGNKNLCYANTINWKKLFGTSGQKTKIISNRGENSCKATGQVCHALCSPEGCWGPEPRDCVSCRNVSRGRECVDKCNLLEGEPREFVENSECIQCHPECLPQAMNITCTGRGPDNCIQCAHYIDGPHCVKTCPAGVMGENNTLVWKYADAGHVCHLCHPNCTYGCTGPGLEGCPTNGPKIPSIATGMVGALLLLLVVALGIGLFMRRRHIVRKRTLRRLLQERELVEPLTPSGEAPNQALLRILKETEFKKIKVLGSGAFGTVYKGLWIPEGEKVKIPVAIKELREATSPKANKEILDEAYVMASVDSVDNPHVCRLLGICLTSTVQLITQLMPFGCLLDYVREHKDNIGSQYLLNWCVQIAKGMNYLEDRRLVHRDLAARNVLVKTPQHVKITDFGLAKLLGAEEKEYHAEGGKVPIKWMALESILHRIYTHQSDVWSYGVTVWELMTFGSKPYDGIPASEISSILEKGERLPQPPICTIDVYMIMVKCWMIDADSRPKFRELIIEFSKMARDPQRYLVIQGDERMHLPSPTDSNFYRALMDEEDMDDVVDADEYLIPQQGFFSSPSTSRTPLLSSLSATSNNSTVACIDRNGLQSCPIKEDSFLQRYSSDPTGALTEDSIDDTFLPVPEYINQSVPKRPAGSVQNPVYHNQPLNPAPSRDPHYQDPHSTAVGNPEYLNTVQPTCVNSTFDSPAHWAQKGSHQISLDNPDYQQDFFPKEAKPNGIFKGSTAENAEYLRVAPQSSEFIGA
Outline: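 GST-fused human EGFR fragment R669-A1210 carrying the SVD insertion, Sf9-expressed, typically 15 pg/μl, was preincubated with compound for 15 min at 22° C in pH 7.0 Hepes/MgCl2 buffer. Phosphorylation was read by HTRF (665/620 nm ratio), normalised to no-inhibitor and no-enzyme controls.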

| Compound | IC50 [1] [nM] | IC50 [2] [nM] | IC50 [3] [µM] | IC50 [4] [nM] |
| --- | --- | --- | --- | --- |
| C=CC(=O)NCCOc1cnccc1-c1[nH]c2cccnc2c1-c1ccccc1 [Example 2, N-(2-{[4-(3-phenyl-1H-pyrrolo[3,2-b]pyridin-2-yl)pyridin-3-yl]oxy}ethyl)prop-2-enamide] | 5020 | 751 | 9.98 | 461 |
| C=CC(=O)N1CCC[C@H]1COc1cnccc1-c1[nH]c2cccnc2c1-c1ccccc1 [Example 34, 1-[(2S)-2-({[4-(3-phenyl-1H-pyrrolo[3,2-b]pyridin-2-yl)pyridin-3-yl]oxy}methyl)pyrrolidin-1-yl]prop-2-en-1-one] | 16.9 | 2.06 | 0.75 | 0.367 |
| C=CS(=O)(=O)N(C)CCOc1cnccc1-c1[nH]c2cccnc2c1-c1ccccc1 [Example 25, N-methyl-N-(2-{[4-(3-phenyl-1H-pyrrolo[3,2-b]pyridin-2-yl)pyridin-3-yl]oxy}ethyl)ethenesulfonamide] | 38.8 | 2.08 | 3.86 | 0.501 |
| C=CC(=O)N(C)CCOc1cnccc1-c1[nH]c2cccnc2c1-c1cccc(Cl)c1 [Example 22, N-[2-({4-[3-(3-chlorophenyl)-1H-pyrrolo[3,2-b]pyridin-2-yl]pyridin-3-yl}oxy)ethyl]-N-methylprop-2-enamide] | 262 | 12.2 | 7.64 | 6.8 |
| C=CC(=O)N(C)CCOc1cnccc1-c1[nH]c2cc(F)cnc2c1-c1ccccc1 [Example 7, N-(2-{[4-(6-fluoro-3-phenyl-1H-pyrrolo[3,2-b]pyridin-2-yl)pyridin-3-yl]oxy}ethyl)-N-methylprop-2-enamide] | 4150 | 316 | 6.99 | 147 |
| C=CC(=O)N(C)CCOc1cnccc1-c1[nH]c2cccnc2c1-c1cccc(C)c1 [Example 9, N-methyl-N-[2-({4-[3-(3-methylphenyl)-1H-pyrrolo[3,2-b]pyridin-2-yl]pyridin-3-yl}oxy)ethyl]prop-2-enamide] | 293 | 13.5 | 8.72 | 6.01 |
| C#CC(=O)N(C)CCOc1cnccc1-c1[nH]c2cccnc2c1-c1ccccc1 [Example 27, N-methyl-N-(2-{[4-(3-phenyl-1H-pyrrolo[3,2-b]pyridin-2-yl)pyridin-3-yl]oxy}ethyl)prop-2-ynamide] | 532 | 69.8 | 8.41 | 19.7 |
| C=CS(=O)(=O)N(CC)CCOc1cnccc1-c1[nH]c2cccnc2c1-c1ccccc1 [Example 33, N-ethyl-N-(2-{[4-(3-phenyl-1H-pyrrolo[3,2-b]pyridin-2-yl)pyridin-3-yl]oxy}ethyl)ethenesulfonamide] | 30.7 | 1.92 | 0.253 | 0.357 |
| C=CS(=O)(=O)N(C)CCOc1cnccc1-c1[nH]c2cccnc2c1-c1cccc(Cl)c1 [Example 29, N-[2-({4-[3-(3-chlorophenyl)-1H-pyrrolo[3,2-b]pyridin-2-yl]pyridin-3-yl}oxy)ethyl]-N-methylethenesulfonamide] | 52.4 | 0.801 | 3.13 | 0.349 |
| C=CC(=O)N(C)CCOc1cnccc1-c1[nH]c2cccnc2c1-c1ccc(Cl)c(OC)c1 [Example 15, N-[2-({4-[3-(4-chloro-3-methoxyphenyl)-1H-pyrrolo[3,2-b]pyridin-2-yl]pyridin-3-yl}oxy)ethyl]-N-methylprop-2-enamide] | 9240 | 4850 | 9.98 | 1540 |
| C=CC(=O)N(C)CCOc1cnccc1-c1[nH]c2cccnc2c1-c1ccc(F)c(C)c1 [Example 12, N-[2-({4-[3-(4-fluoro-3-methylphenyl)-1H-pyrrolo[3,2-b]pyridin-2-yl]pyridin-3-yl}oxy)ethyl]-N-methylprop-2-enamide] | 538 | 14.2 | 9.1 | 8.68 |
| C=CC(=O)N(C)CCOc1cnccc1-c1[nH]c2cccnc2c1-c1cccc(F)c1 [Example 14, N-[2-({4-[3-(3-fluorophenyl)-1H-pyrrolo[3,2-b]pyridin-2-yl]pyridin-3-yl}oxy)ethyl]-N-methylprop-2-enamide] | 833 | 46.3 | 9.98 | 16.4 |
| C=CC(=O)N1CCC[C@H]1COc1cnccc1-c1[nH]c2cccnc2c1-c1cccc(Cl)c1 [Example 41, 1-{(2S)-2-[({4-[3-(3-chlorophenyl)-1H-pyrrolo[3,2-b]pyridin-2-yl]pyridin-3-yl}oxy)methyl]pyrrolidin-1-yl}prop-2-en-1-one] | 25.9 | 0.988 | 0.782 | 0.319 |
| C=CC(=O)N(C)CCCOc1cnccc1-c1[nH]c2cccnc2c1-c1ccccc1 [Example 3, N-methyl-N-(3-{[4-(3-phenyl-1H-pyrrolo[3,2-b]pyridin-2-yl)pyridin-3-yl]oxy}propyl)prop-2-enamide] | 9980 | 3410 | 9.98 | 2840 |
| C=CC(=O)N1CCC[C@H]1COc1cnccc1-c1[nH]c2cccnc2c1-c1cccc(C(F)(F)F)c1 [Example 39, 1-[(2S)-2-{[(4-{3-[3-(trifluoromethyl)phenyl]-1H-pyrrolo[3,2-b]pyridin-2-yl}pyridin-3-yl)oxy]methyl}pyrrolidin-1-yl]prop-2-en-1-one] | 91.4 | 5.22 | 5.4 | 1.19 |
| C=CC(=O)N1CCC[C@H]1COc1cnccc1-c1[nH]c2cccnc2c1-c1cc(Cl)ccc1F [Example 42, 1-{(2S)-2-[({4-[3-(5-chloro-2-fluorophenyl)-1H-pyrrolo[3,2-b]pyridin-2-yl]pyridin-3-yl}oxy)methyl]pyrrolidin-1-yl}prop-2-en-1-one] | 44.7 | 2.84 | 3.64 | 1.11 |
| C=CC(=O)NCCCOc1cnccc1-c1[nH]c2cccnc2c1-c1ccccc1 [Example 5, N-(3-{[4-(3-phenyl-1H-pyrrolo[3,2-b]pyridin-2-yl)pyridin-3-yl]oxy}propyl)prop-2-enamide] | 9980 | > 20000 | 9.98 | 11300 |
| C=CC(=O)NCCOc1cnccc1-c1[nH]c2cc(F)cnc2c1-c1ccccc1 [Example 6, N-(2-{[4-(6-fluoro-3-phenyl-1H-pyrrolo[3,2-b]pyridin-2-yl)pyridin-3-yl]oxy}ethyl)prop-2-enamide] | 7080 | 5510 | 9.98 | 3850 |
| C=CS(=O)(=O)N1CCC[C@H]1COc1cnccc1-c1[nH]c2cccnc2c1-c1cccc(Cl)c1 [Example 40, 3-(3-chlorophenyl)-2-(3-{[(2S)-1-(ethenesulfonyl)pyrrolidin-2-yl]methoxy}pyridin-4-yl)-1H-pyrrolo[3,2-b]pyridine] | 8.54 | 0.29 | 0.0679 | 0.193 |
| C=CC(=O)N(C)CCOc1cnccc1-c1[nH]c2cccnc2c1-c1ccccc1OC [Example 17, N-[2-({4-[3-(2-methoxyphenyl)-1H-pyrrolo[3,2-b]pyridin-2-yl]pyridin-3-yl}oxy)ethyl]-N-methylprop-2-enamide] | 8160 | 1700 | 9.98 | 569 |
| CC#CC(=O)N(C)CCOc1cnccc1-c1[nH]c2cccnc2c1-c1ccccc1 [Example 28, N-methyl-N-(2-{[4-(3-phenyl-1H-pyrrolo[3,2-b]pyridin-2-yl)pyridin-3-yl]oxy}ethyl)but-2-ynamide] | 9980 | > 20000 | 9.98 | 6500 |
| C=CC(=O)N(C)CCOc1cnccc1-c1[nH]c2cccnc2c1-c1ccc(Cl)c(C(=O)OC)c1 [Example 13, Methyl 2-chloro-5-[2-(3-{2-[methyl(prop-2-enoyl)amino]ethoxy}pyridin-4-yl)-1H-pyrrolo[3,2-b]pyridin-3-yl]benzoate] | 6190 | 1390 | 9.98 | 720 |
